Data taken from patent US3978071A, “Substituted phenylalkanoic acids and derivatives” (Yoshitomi Pharmaceutical Industries, Ltd., priority 1973, dated 1976).

What was measured:
[1] = tested on: o-phenyl-p-benzoquinone induced stretch symptoms; assay: Analgesic Action (Phenylquinone Method); type: in vivo, dd-strain male mice; conditions: Mus musculus, po, mice, 1 hour before 0.02% o-phenyl-p-benzoquinone i.p., dose required for 50% inhibition of stretch symptoms (30 minutes)
Description: According to the method of Hendershot et al. (J. Pharmacol. Exptl. Therap., 125, 237 (1959)), to one group of 6 dd-strain male mice each weighing about 20 g a test solution containing a test compound was orally administered and 1 hour later 0.2 ml/20 g of body weight of 0.02% o-phenyl-p-benzoquinone solution was intraperitoneally injected. The frequency of stretch symptoms thus induced was measured for 30 minutes, and compared with that of a control group, and the inhibition percentage (effect) was calculated. The ED50 the dose required for 50% inhibition, was calculated from the dose-response curve.

[2] = tested on: ultraviolet erythema; assay: Anti-inflammatory Action, Ultraviolet Erythema Method; type: in vivo; conditions: Cavia porcellus, light or radiation study, po, guinea pigs, equal amounts 1 hour before and after irradiation; total dose required for 50% efficacy rate
Excerpt: ii. Ultraviolet Erythema Method:
Using guinea pigs weighing 250-450 g, a rubber plate with 3 holes of 7 mm in diameter was fitted to the abdomen, hair of which had been removed in advance, and light was given by a mercury lamp (300 W) at the distance of 15 cm for 150 seconds. Two hours later the degree of erythema formation was marked according to the method of Winder et al. (Arch. Intern. Pharmacodyn., 116, 261 (1958); 1 for distinct erythema, 0.5 for indistinct erythema and 0 for no erythema) and the efficacy rate was calculated, based on the criterion that 1.5 or less of total marks be effective. Equal amounts of the test solution were orally given 1 hour before and after the irradiation, respectively. The ED50, the total dose required for 50% efficacy rate, was calculated from the dose-response curve.

[3] = tested on: carrageenin edema of the hind paw; assay: Anti-inflammatory Action, Carrageenin Edema Method; type: in vivo, Donryu-strain male rats; conditions: Rattus norvegicus, po, rats, 1 hour before 1% carrageenin s.c.; paw bulk 2 hours after phlogogen; dose required for 50% inhibition
Description: i. Carrageenin Edema Method
According to the method of Winter et al. (Proc. Soc. Exptl. Biol. Med., 111, 544 (1962)), to one group of 5 Donryu-strain male rats each weighing about 130 g a test solution containing a test compound was administered orally. One hour later 0.05 ml of 1% carrageenin solution as phlogogenic substance was subcutaneously injected to the paw of the hind leg. And 2 hours after the administration of phlogogen the bulk of the paw was measured in order to obtain the increment percentage over that before administration. The ratio of bulk increment between a control group and a test group was calculated as inhibition percentage. The ED50, the dose required for 50% inhibition, was calculated from the dose-response curve.

SMILES | ED50 [1] [mg/kg] | ED50 [2] [mg/kg] | ED50 [3] [mg/kg]
CC(C(=O)O)c1ccc(-c2cn3ccccc3n2)cc1 (stereo not drawn) [A, 2-[4-(imidazo[1,2-a]pyridin-2-yl)phenyl]propionic acid] | 0.1 | 6 | 8
CC(C(=O)O)c1ccc(-c2cn3ccccc3n2)c(Cl)c1 (stereo not drawn) [B, 2-[3-chloro-4-(imidazo[1,2-a]pyridin-2-yl)phenyl]propionic acid] | 0.2 | 1 | 25
CC(C(=O)O)c1ccc(-c2cn3ccccc3n2)c(F)c1 (stereo not drawn) [C, 2-[3-fluoro-4-(imidazo[1,2-a]pyridin-2-yl)phenyl]propionic acid] | 0.1 | 2.5 | 25
CC(C(=O)O)c1ccc(-c2cn3ccsc3n2)cc1 (stereo not drawn) [D, 2-[4-(imidazo[2,1-b]thiazol-6-yl)phenyl]propionic acid] | 13 | 2.5 | 50
CC(C(=O)O)c1ccc(-c2cn3ccsc3n2)c(Cl)c1 (stereo not drawn) [E, 2-[3-chloro-4-(imidazo[2,1-b]thiazol-6-yl)phenyl]propionic acid] | 0.5 to 1 | 5 | 100
